Article PMC4669722, “Antitumour potential of BPT: a dual inhibitor of cdk4 and tubulin polymerization” (Cell Death & Disease, 2015)
pIC50: −log10 of the molar value.

Experiments:
NCI-H460 tumours = assay: NCI-H460 xenograft efficacy in SCID mice; format: in vivo; details: 100 mpk intraperitoneal, 9 days
Procedure: A group of 65 SCID (SCID strain-CBySmn.CB17-Prkdc^scid/J; The Jackson Laboratory; Stock no. 001803) female mice weighing 15–24 g and 6–8 weeks old were used. Human non-small-cell lung carcinoma, NCI-H460 (ATCC; cat. no. HTB-177) cells grown in RPMI-1640 medium supplemented with 10% FBS (Sigma-Aldrich). The cultured cells were injected subcutaneously into the dorsal side of SCID mice at a tune of 5.3 × 10^6 cells in 0.2 ml of suspension. When the tumour growth reached about 4–6 mm in diameter (about 6 days), the animals were randomly divided into eight groups, each containing 6 or 7 mice. The treatments were continued for 9 consecutive days intraperitoneally. Flavopiridol (2.5 mpk) was used as a positive control in this study. Tumour size was recorded at 2–5 day intervals. Tumour weight (mg) was estimated according to the formula for a prolate ellipsoid: (length (mm) × width (mm)^2) × 0.5) assuming specific gravity to be one and π to be 3. Tumour growth in compound treated animals is calculated as T/C (treated/control) × 100% and growth inhibition percent (% GI) was (100−% T/C).[48], [49], [50]

[1] = Body weight measurements in xenograft models; format: in vivo, SCID mice
Procedure: The body weights of animals in different treatment and control groups were monitored by taking the measurements daily during the treatment schedule. By considering the body weight at the start of the treatment as 100%, the percent weight loss was calculated on subsequent days of treatments.

[2] = test system: NCI-H460 (NSCLC; p53+, pRb+); assay: Cell proliferation (MTT) assay, NCI-H460; format: cell-based; details: Homo sapiens, 48 h, read-out: IC50 cell growth inhibition, NCI-H460
Procedure: All 10 human cancer cell lines were maintained at 37 °C in 5% CO2 in RPMI-1640 medium, supplemented with 10% foetal calf serum and 100 μg/ml normocin. The 10 cancer cell lines used for screening were all obtained from ATCC (Manassas, VA, USA); they were the NSCLC (a form of cancer that is resistant to chemotherapy) lines: NCI-H460 (pRb^+, p53^+), A549 (pRb^+, p53^+), Calu-1 (pRb^+, p53-null), NCI-H1299 (pRb^+, p53-null), NCI-H358 (pRb-null, p53-null); the colon cancer line LS174T (pRb^+, p53^+); the prostate cancer line PC-3 (pRb^+, p53-null); the pancreatic cancer line MiaPaca (pRb^+, p53-mutant). The genotypes within brackets indicate the status of the tumour suppressor proteins pRb and p53. The mouse embryonic normal hepatic cell line (BNL CL2) and its SV40 large T-antigen-transformed counterpart cell line (BNL SV A.8) were also purchased from ATCC. The large T-antigen inactivates the tumour suppressor proteins p53 and pRb. The detailed procedure of cell proliferation (MTT) assay and IC50 determination was described previously.[32]

A549 and Calu-1 cells = assay: Colony formation (clonogenic) assay, A549 and Calu-1; format: cell-based, human; details: p53+ A549 and p53-null Calu-1, 12-day experiment
Procedure: A549 and Calu-1 cells were plated at a concentration of 500 cells per well in 35 mm/6-well plates in 2 ml complete medium. The plates were incubated for 24 h stabilization and further incubated with a range of concentrations of fascaplysin and BPT for 24 h. Plates were then gently washed with PBS, replaced with fresh medium and incubated at 37 °C. After 10–12 days, cells were fixed in methanol:acetic acid (2 : 1) fixative for 10 min, washed, air dried and stained with 1% crystal violet. The colonies were evaluated by visual counts. The number of colonies in treated cultures was expressed as a percentage of the control cultures. All results represent means and standard deviations from at least three independent experiments.

tubulin = assay: Cell-free tubulin polymerization assay in vitro; format: biochemical; details: for Vmax of tubulin polymerization: control 19 mOD/min
Procedure: The purified tubulin was obtained commercially (Cytoskeleton Inc., Denver, CO, USA) and the polymerization assays were carried out according to the method described previously.[36] […] The resulting polymerization curves are representative of the three phases of microtubule polymerization, namely nucleation, growth and steady-state equilibrium. Paclitaxel and nocodazole were used in the assay as a known enhancer and inhibitor of tubulin polymerization, respectively. The ability of BPT to inhibit tubulin polymerization in vitro was determined according to the manufacturer's instructions. Briefly, tubulin protein (3 mg/ml) was polymerized in GTP buffer (80 mM PIPES, pH 6.9, 2 mM MgCl2, 0.5 mM EGTA, 10.2% glycerol and 1 mM GTP) in the presence of a range of BPT concentrations at 37 °C in a temperature-regulated Biotech spectrophotometer (Potton, Bedfordshire, UK). The absorbance (at 340 nm) kinetics of 61 cycles for each sample was studied and the readings were recorded at an interval of 1 min.

Q: Which results are given for `O=C(c1ccccc1-c1ccccc1)N1CCc2c([nH]c3ccccc23)C1` [BPT, 2-(biphenyl-2-carbonyl)-2,3,4,9-tetrahydro-1H-pyrido[3,4-b]indole]?
A: antitumour efficacy (NCI-H460 tumours): high efficacy; weight loss of treated animals ([1]; SCID mice-HCT116 tumour model, 100 mpk, of starting weight): < 10%; weight loss of treated animals ([1]; both tumour models (HCT-116 and NCI-H460)): statistically insignificant weight loss; pIC50 [2]: 6.22; colony formation efficiency (A549 and Calu-1 cells): significant reduction; Vmax of tubulin polymerization (tubulin; 0.5 μM): 12.5 mOD/min; Vmax of tubulin polymerization (tubulin; 1 μM): 9.2 mOD/min; Vmax of tubulin polymerization (tubulin; 2.5 μM): 3 mOD/min; Vmax of tubulin polymerization (tubulin; 5 μM): 0.5 mOD/min; reduction in final polymer mass (tubulin; 0.5-5 μM): up to 80%
